In the test the target is Adenosine receptor A2a (Rattus norvegicus) (UniProt P30543). The test can be described thus: Displacement of [3H]CGS-21680 from Adenosine A2A receptor of rat striatal membrane at 10e-4 M.
Sequence of Adenosine receptor A2a (Rattus norvegicus) (P30543 whole entry): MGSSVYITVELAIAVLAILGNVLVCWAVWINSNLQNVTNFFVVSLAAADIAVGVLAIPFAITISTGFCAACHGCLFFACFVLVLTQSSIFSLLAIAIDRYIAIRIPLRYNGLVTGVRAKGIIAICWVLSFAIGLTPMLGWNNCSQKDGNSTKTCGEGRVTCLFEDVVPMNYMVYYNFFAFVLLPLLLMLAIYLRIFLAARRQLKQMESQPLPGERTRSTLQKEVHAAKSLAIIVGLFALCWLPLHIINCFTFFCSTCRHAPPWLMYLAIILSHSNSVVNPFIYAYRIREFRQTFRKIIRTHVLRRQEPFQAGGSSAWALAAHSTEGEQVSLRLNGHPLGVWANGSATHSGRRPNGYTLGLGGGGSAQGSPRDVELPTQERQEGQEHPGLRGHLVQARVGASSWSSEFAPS

Consider `CCO/C(O)=C1\C(C)=NC(c2ccccc2)=C(C(=O)OCc2ccccc2)[C@@H]1C#Cc1ccccc1`, for which the inhibition (usually the change of the read-out against control, counted positive when it falls) came out at 11%. Compound `CCO/C(O)=C1\C(C)=NC(c2ccccc2)=C(C(=O)OCc2ccccc2)[C@H]1C#Cc1ccccc1` gave an inhibition of 14%. To `CCOC(=O)C1=C(c2ccccc2)N=C(C)/C(=C(/O)OC[C@H](O)CO)[C@H]1C#Cc1ccccc1` belongs 10%. `CCOC(=O)C1=C(c2ccccc2)N=C(C)/C(=C(/O)OC[C@H]2COC(C)(C)O2)[C@@H]1C#Cc1ccccc1` registered an inhibition of 10%.

As to `CCO/C(O)=C1\C(C)=NC(c2ccccc2)=C(C(=O)OCc2ccccc2)C1C#Cc1ccccc1` (stereo unspecified), the inhibition came out at 10%.

`CCOC(=O)C1=C(c2ccccc2)N=C(C)/C(=C(/O)OC[C@H]2COC(C)(C)O2)[C@H]1C#Cc1ccccc1` yielded an inhibition of 10%.

The values are drawn from ChEMBL document CHEMBL1132337, “Chiral resolution and stereospecificity of 6-phenyl-4-phenylethynyl- 1,4-dihydropyridines as selective A(3) adenosine receptor antagonists” (J Med Chem, 1999).
